Results published in the supplement of paper PMC10307832.

Legend:
Assay in all cases: relative viability (nuclei count vs DMSO), 5 days (fraction); higher = more cells survive
[1] = compound: CCOC1=CC=CC=C1N=NC2=C(NN(C2=O)C3=NC(=CS3)C4=CC=CC=C4)C [BAM7] + C[C@@H](Oc1cc(-c2cnn(C3CCNCC3)c2)cnc1N)c1c(Cl)ccc(F)c1Cl [Crizotinib] (partner 1 µM)
Procedure, shortened: (§1)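 Values are medians from duplicate plates. Each reflects relative viability, defined as the nuclei count of treated wells over that of vehicle wells. Lung cancer cell lines in 1536-well plates were pin-tool dosed one day after seeding with one drug alone or with a fixed anchor-drug dose plus five library-drug doses (not always all listed) in √10 steps, then fixed, stained and imaged at 4× after 5 days.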

[2] = compound: CCOC1=CC=CC=C1N=NC2=C(NN(C2=O)C3=NC(=CS3)C4=CC=CC=C4)C [BAM7] + C[C@]1(O)C[C@@H](c2nc(-c3ccc4ccc(-c5ccccc5)nc4c3)c3c(N)nccn32)C1 [Linsitinib] (partner 1 µM)
Procedure, shortened: as §1

[3] = compound: CCOC1=CC=CC=C1N=NC2=C(NN(C2=O)C3=NC(=CS3)C4=CC=CC=C4)C [BAM7] + CS(=O)(=O)N1CCN(Cc2cc3nc(-c4cccc5[nH]ncc45)nc(N4CCOCC4)c3s2)CC1 [Pictilisib] (partner 1 µM)
Procedure, shortened: as §1

[4] = compound: CCOC1=CC=CC=C1N=NC2=C(NN(C2=O)C3=NC(=CS3)C4=CC=CC=C4)C [BAM7] + Cc1cc(Nc2cc(N3CCN(C)CC3)nc(Sc3ccc(NC(=O)C4CC4)cc3)n2)n[nH]1 [Tozasertib] (partner 0.1 µM)
Procedure, shortened: as §1

[5] = compound: CCOC1=CC=CC=C1N=NC2=C(NN(C2=O)C3=NC(=CS3)C4=CC=CC=C4)C [BAM7] + COc1cccc2cc(-c3nc([C@H]4CC[C@H](C(=O)O)CC4)n4ncnc(N)c34)[nH]c12 [OSI-027] (partner 0.5 µM)
Procedure, shortened: as §1

NCI-H727
relative viability ([1]; first compound 0.5 µM): 0.843
relative viability ([1]; first compound 5 µM): 0.799
relative viability ([1]; first compound 15.81 µM): 0.714
relative viability ([1]; first compound 50 µM): 0.675
relative viability ([2]; first compound 0.5 µM): 0.273
relative viability ([2]; first compound 5 µM): 0.416
relative viability ([2]; first compound 15.81 µM): 0.314
relative viability ([2]; first compound 50 µM): 0.245
relative viability ([3]; first compound 0.5 µM): 0.414
relative viability ([3]; first compound 5 µM): 0.545
relative viability ([3]; first compound 15.81 µM): 0.387
relative viability ([3]; first compound 50 µM): 0.31
relative viability ([4]; first compound 0.5 µM): 0.496
relative viability ([4]; first compound 5 µM): 0.599
relative viability ([4]; first compound 15.81 µM): 0.555
relative viability ([4]; first compound 50 µM): 0.52
relative viability ([5]; first compound 0.5 µM): 0.591
relative viability ([5]; first compound 5 µM): 0.509
relative viability ([5]; first compound 15.81 µM): 0.523
relative viability ([5]; first compound 50 µM): 0.738

NCI-H838
relative viability ([1]; first compound 0.5 µM): 0.867
relative viability ([1]; first compound 5 µM): 0.904
relative viability ([1]; first compound 15.81 µM): 0.803
relative viability ([1]; first compound 50 µM): 0.783
relative viability ([2]; first compound 0.5 µM): 1.12
relative viability ([2]; first compound 5 µM): 1.06
relative viability ([2]; first compound 15.81 µM): 0.982
relative viability ([2]; first compound 50 µM): 0.994
relative viability ([3]; first compound 0.5 µM): 0.487
relative viability ([3]; first compound 5 µM): 0.421
relative viability ([3]; first compound 15.81 µM): 0.449
relative viability ([3]; first compound 50 µM): 0.441
relative viability ([4]; first compound 0.5 µM): 0.262
relative viability ([4]; first compound 5 µM): 0.309
relative viability ([4]; first compound 15.81 µM): 0.233
relative viability ([4]; first compound 50 µM): 0.263
relative viability ([5]; first compound 0.5 µM): 0.365
relative viability ([5]; first compound 5 µM): 0.435
relative viability ([5]; first compound 15.81 µM): 0.405
relative viability ([5]; first compound 50 µM): 0.379

NCI-H1355
relative viability ([1]; first compound 0.5 µM): 0.968
relative viability ([1]; first compound 5 µM): 1.05
relative viability ([1]; first compound 15.81 µM): 0.937
relative viability ([1]; first compound 50 µM): 0.987
relative viability ([2]; first compound 0.5 µM): 0.89
relative viability ([2]; first compound 5 µM): 0.823
relative viability ([2]; first compound 15.81 µM): 0.729
relative viability ([2]; first compound 50 µM): 0.792
relative viability ([3]; first compound 0.5 µM): 0.462
relative viability ([3]; first compound 5 µM): 0.41
relative viability ([3]; first compound 15.81 µM): 0.384
relative viability ([3]; first compound 50 µM): 0.435
relative viability ([4]; first compound 0.5 µM): 0.515
relative viability ([4]; first compound 5 µM): 0.461
relative viability ([4]; first compound 15.81 µM): 0.361
relative viability ([4]; first compound 50 µM): 0.459
relative viability ([5]; first compound 0.5 µM): 0.441
relative viability ([5]; first compound 5 µM): 0.374
relative viability ([5]; first compound 15.81 µM): 0.385
relative viability ([5]; first compound 50 µM): 0.395

NCI-H1437
relative viability ([1]; first compound 0.5 µM): 1
relative viability ([1]; first compound 5 µM): 1.16
relative viability ([1]; first compound 15.81 µM): 0.53
relative viability ([1]; first compound 50 µM): 0.937
relative viability ([2]; first compound 0.5 µM): 1.03
relative viability ([2]; first compound 5 µM): 0.959
relative viability ([2]; first compound 15.81 µM): 0.922
relative viability ([2]; first compound 50 µM): 0.993
relative viability ([3]; first compound 0.5 µM): 0.722
relative viability ([3]; first compound 5 µM): 0.434
relative viability ([3]; first compound 15.81 µM): 0.318
relative viability ([3]; first compound 50 µM): 0.63
relative viability ([4]; first compound 0.5 µM): 0.482
relative viability ([4]; first compound 5 µM): 0.489
relative viability ([4]; first compound 15.81 µM): 0.417
relative viability ([4]; first compound 50 µM): 0.425
relative viability ([5]; first compound 0.5 µM): 1.19
relative viability ([5]; first compound 5 µM): 0.985
relative viability ([5]; first compound 15.81 µM): 0.883
relative viability ([5]; first compound 50 µM): 0.972

NCI-H1651
relative viability ([1]; first compound 0.5 µM): 0.826
relative viability ([1]; first compound 5 µM): 0.889
relative viability ([1]; first compound 15.81 µM): 0.871
relative viability ([1]; first compound 50 µM): 0.886
relative viability ([2]; first compound 0.5 µM): 1.05
relative viability ([2]; first compound 5 µM): 1.09
relative viability ([2]; first compound 15.81 µM): 1.01
relative viability ([2]; first compound 50 µM): 1.02
relative viability ([3]; first compound 0.5 µM): 0.497
relative viability ([3]; first compound 5 µM): 0.64
relative viability ([3]; first compound 15.81 µM): 0.7
relative viability ([3]; first compound 50 µM): 0.541
relative viability ([4]; first compound 0.5 µM): 0.674
relative viability ([4]; first compound 5 µM): 0.758
relative viability ([4]; first compound 15.81 µM): 0.637
relative viability ([4]; first compound 50 µM): 0.638
relative viability ([5]; first compound 0.5 µM): 0.657
relative viability ([5]; first compound 5 µM): 0.758
relative viability ([5]; first compound 15.81 µM): 0.7
relative viability ([5]; first compound 50 µM): 0.653

NCI-H1666
relative viability ([1]; first compound 0.5 µM): 1.07
relative viability ([1]; first compound 5 µM): 1.02
relative viability ([1]; first compound 15.81 µM): 1.03
relative viability ([1]; first compound 50 µM): 0.967
relative viability ([2]; first compound 0.5 µM): 0.835
relative viability ([2]; first compound 5 µM): 0.867
relative viability ([2]; first compound 15.81 µM): 0.734
relative viability ([2]; first compound 50 µM): 0.854
relative viability ([3]; first compound 0.5 µM): 0.404
relative viability ([3]; first compound 5 µM): 0.617
relative viability ([3]; first compound 15.81 µM): 0.352
relative viability ([3]; first compound 50 µM): 0.587
relative viability ([4]; first compound 0.5 µM): 0.586
relative viability ([4]; first compound 5 µM): 0.57
relative viability ([4]; first compound 15.81 µM): 0.613
relative viability ([4]; first compound 50 µM): 0.591
relative viability ([5]; first compound 0.5 µM): 0.899
relative viability ([5]; first compound 5 µM): 0.786
relative viability ([5]; first compound 15.81 µM): 0.875
relative viability ([5]; first compound 50 µM): 0.929

NCI-H1734
relative viability ([1]; first compound 0.5 µM): 0.868
relative viability ([1]; first compound 5 µM): 0.634
relative viability ([1]; first compound 15.81 µM): 0.556
relative viability ([1]; first compound 50 µM): 0.685
relative viability ([2]; first compound 0.5 µM): 0.946
relative viability ([2]; first compound 5 µM): 1.07
relative viability ([2]; first compound 15.81 µM): 0.821
relative viability ([2]; first compound 50 µM): 0.937
relative viability ([3]; first compound 0.5 µM): 0.477
relative viability ([3]; first compound 5 µM): 0.496
relative viability ([3]; first compound 15.81 µM): 0.451
relative viability ([3]; first compound 50 µM): 0.482
relative viability ([4]; first compound 0.5 µM): 0.289
relative viability ([4]; first compound 5 µM): 0.253
relative viability ([4]; first compound 15.81 µM): 0.246
relative viability ([4]; first compound 50 µM): 0.248
relative viability ([5]; first compound 0.5 µM): 0.606
relative viability ([5]; first compound 5 µM): 0.657
relative viability ([5]; first compound 15.81 µM): 0.602
relative viability ([5]; first compound 50 µM): 0.647

NCI-H1755
relative viability ([1]; first compound 0.5 µM): 0.917
relative viability ([1]; first compound 5 µM): 0.935
relative viability ([1]; first compound 15.81 µM): 0.829
relative viability ([1]; first compound 50 µM): 0.85
relative viability ([2]; first compound 0.5 µM): 1.01
relative viability ([2]; first compound 5 µM): 1.06
relative viability ([2]; first compound 15.81 µM): 1.02
relative viability ([2]; first compound 50 µM): 0.978
relative viability ([3]; first compound 0.5 µM): 0.454
relative viability ([3]; first compound 5 µM): 0.409
relative viability ([3]; first compound 15.81 µM): 0.366
relative viability ([3]; first compound 50 µM): 0.415
relative viability ([4]; first compound 0.5 µM): 0.602
relative viability ([4]; first compound 5 µM): 0.615
relative viability ([4]; first compound 15.81 µM): 0.55
relative viability ([4]; first compound 50 µM): 0.644
relative viability ([5]; first compound 0.5 µM): 0.81
relative viability ([5]; first compound 5 µM): 0.698
relative viability ([5]; first compound 15.81 µM): 0.689
relative viability ([5]; first compound 50 µM): 0.719
